“And” between values parts separate entries of the source, which are not always exact repeats. Equal entries are not always repeated. “Also recorded” adds a separate entry of the source.
What was measured:
Male Sprague-Dawley rats [1] = test: Sustained i.v. infusion of diuretics in conscious catheterised rats: dose response, combinations, renal clearance (Example 2); format: in vivo, rat; settings: for Equidiuretic dose / dose at which the maximum diuretic effect was reached / Potassium excretion / diuretic effect (urine flow): sustained i.v. infusion; for dose at which the maximum diuretic effect was reached / Potassium excretion / diuretic effect (urine flow): dose response; for Potassium excretion / diuretic effect (urine flow): single agents
Protocol: Male Sprague-Dawley rats were obtained from Charles River Labs (Wilmington, Del.). They were housed in a light-controlled room with a 12 h light/dark cycle and were allowed ad libitum access to food and water.
Catheters were implanted in the abdominal aorta and vena cava via the left femoral artery and vein under a mixture of ketamine hydrochloride (50 mg/kg) and acepromazine (0.2 mg/kg, i.m.) anesthesia. An additional medical grade Tygon tubing was placed in the he stomach at the left extremity of the greater curvature. A silastic-covered stainless steel cannula was implanted in the bladder. Details of surgery, pre and post-surgical care and the experimental set-ups have been described in detail previously (87). Experiments were conducted 4-5 days following surgery, by which time the rats had fully recovered and were gaining weight. During the recovery, the rats were housed individually and were accustomed to a plastic retainer (model ECU, Braintree Scientific, Inc., Braintree, Mass.).
Between 8:00-9:00 AM, rats were weighed and placed in the restrainer. The arterial line was connected to a Gilson polygraph via a Gould pressure transducer for the recording of blood pressure (MAP) and heart rate (HR); the venous line to infusion pumps for the infusion of vehicle and test agents; and the stomach tube to a 10 or 20 cc syringe to allow for the replacement of excess urinary loss. The bladder cannula was extended with a short length of PE tubing to permit collection of urine into preweighed tubes.
To replace normal fluid and electrolytes loss, heparinized (50 U/ml) ringer's solution was infused throughout the experiment via the arterial line and 5% dextrose during the equilibration and control period via the venous line, each at 10 μl/min. When excess fluid loss reached 2 ml, it was replaced via the gastric tube with room temperature Ringer's solution. A period of 45-60 min was allowed for equilibration in all studies, at the end of which a 0.5 ml blood sample was taken for measurement of hematocrit, plasma electrolytes and creatinine. This was followed by the various experimental procedures described below.
Group 1. Sustained I.V. infusion of diuretic agents. Urine was collected in 5 min periods throughout the experimental period. After equilibration, 3 collections were made to establish baseline. thirty min urine collections were made before and during infusion of test agent. […] At the end of experiments, the rats were weighed again and returned to their home cages.
Group 2. Sustained i.v. infusion of combinations diuretics. […] After the termination of infusion, urine flow was allowed to return to baseline, approximately 15-20 min. The rats were then weighed and returned to their home cages.
Group 3. […] (10%) and PAH (2%) were infused i.v. at 20 μl/min from the start. IN order to establish baseline values, two 20 min urine collections were performed following equilibration. One blood sample (500 μl) was taken in the middle of the second collection.
Urinary and plasma concentrations of […] and PAH were determined by spectrophotometry, electrolyte concentrations were measured using the Synchron ASB Clinical System (Beckman Instr. Inc., Brea, Calif.) and osmolality by an automatic osmometer (Model 2430, Precision Systems, Inc., Natick, Mass.). Renal clearance values were calculated using standard clearance formulae and expressed per 100 g body weight.
All values represent maximal changes, expressed as absolute values, and are reported throughout as group means+−SEM. Data from the does-response studies (groups 1-5) were analyzed using an analysis of variance for repeated measures, post-hoc comparisons were made with the Schette f-test. Analysis of variance (ANOVA) was used to analyze differences between the effects of various diuretics and their combinations (group 6) and the renal clearance data (group 7). A value of P<0.05 was considered statistically significant.

adenosine A1 receptor [2] = target: T1, adenosine A1 receptor (Homo sapiens, UniProt P30542); test: IC50 for the adenosine A1 receptor; format: binding
T1 sequence (P30542 1-326): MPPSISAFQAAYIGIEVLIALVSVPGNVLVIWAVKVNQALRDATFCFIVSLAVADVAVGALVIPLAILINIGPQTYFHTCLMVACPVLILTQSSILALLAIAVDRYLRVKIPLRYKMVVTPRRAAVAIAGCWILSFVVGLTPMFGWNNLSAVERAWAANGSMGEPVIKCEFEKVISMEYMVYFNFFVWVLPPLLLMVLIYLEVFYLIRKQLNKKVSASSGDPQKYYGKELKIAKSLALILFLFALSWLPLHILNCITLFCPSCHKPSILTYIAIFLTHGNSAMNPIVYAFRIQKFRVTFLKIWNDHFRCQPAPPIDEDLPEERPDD

Male Sprague-Dawley rats [3] = test: Renal function of anesthetized rats after 0-3 days of furosemide, before and after BG9719 IV (Example 7); format: in vivo, rat
Protocol: Twenty four hours after their last dose, they were anesthetized and instrumented to measure renal function and hemodynamics.
We collected a 30 minute baseline urine and determined basal sodium excretion in these rats.
Twenty-four hours after the last dose was administered, the rats were anesthetized and instrumented to measure renal function. […] Urine was collected via an implanted bladder catheter.

Male Sprague-Dawley rats [4] = test: Natriuretic response to oral dosing in rats in metabolic cages (Examples 3, 5, 6); format: in vivo, rat; settings: once-daily gavage, Days 1-5, furosemide 100 mg/kg or BG9719 1 mg/kg; urine 4 hours after dosing
Protocol: Urines were collected for 4 hours post dosing and the natriuretic response was determined. The data are expressed as uEq/hr.
FIG. 8: In the same rats from FIG. 7, we collected urine for 4 hours after dosing.
Twenty four male Sprague-Dawley rats were placed in metabolic cages to collect urines in order to assess the natriuretic response to orally administered compounds. […] Urines were collected for 4 hours after dosing. Urine volume was determined gravimetrically and urinary sodium concentration was determined by flame photometry.
The rats shown in Example 4 were placed in metabolic cages on Days 1 through 5 of dosing and urine was collected for 4 hours after dosing. Urine volume was determined gravimetrically and urinary sodium concentration was determined by flame photometry.
They were placed in metabolic cages and urines were collected for four hours after dosing. Urine volume was determined gravimetrically and urinary sodium concentration was determined by flame photometry.

Micropuncture studies = format: in vivo; settings: following administration of BG9719
[5] = tested on: patients with NYHA Class II or III CHF; test: Renal function in CHF patients after single intravenous dose (Example 1); settings: 0-2 hours, mean, single i.v. dose
adenosine A1 receptor [6] = target: T1, adenosine A1 receptor; settings: other adenosine A1 receptor antagonists; cited from earlier work
[7] = renal clearance study, FUR 10 μg/kg/min i.v. for 90 min

Row | SMILES | Equidiuretic dose (Male Sprague-Dawley rats [1]) [µg/kg/min] | dose at which the maximum diuretic effect was reached (Male Sprague-Dawley rats [1]) [µg/kg/min] | Potassium excretion (Male Sprague-Dawley rats [1]) | diuretic effect (urine flow) (Male Sprague-Dawley rats [1]) | IC50 (adenosine A1 receptor [2]) [nM] | GFR after dosing in Day 3 furosemide rats (Male Sprague-Dawley rats [3]; BG9719 0.1 mg/kg IV after 3 days furosemide) | urinary sodium excretion (UNaV) after dosing (Male Sprague-Dawley rats [3]; BG9719 0.1 mg/kg IV, control rats and 3 Day Furo rats) | GFR after dosing versus baseline (Male Sprague-Dawley rats [3]; BG9719 0.1 mg/kg IV, rats with 0-3 days furosemide) | increase in GFR (Male Sprague-Dawley rats [1]; renal clearance study, 1 μg/kg/min i.v. for 90 min, not statistically significant) [%] | absolute and fractional excretions of sodium (Male Sprague-Dawley rats [1]; renal clearance study, BG9719 1 or FUR 10 μg/kg/min i.v. for 90 min) | total urine output (Male Sprague-Dawley rats [1]; representative animal of FIG. 1, i.v. infusion 0.3-10 μg/kg/min) [mL] | natriuretic response on repeated dosing (Male Sprague-Dawley rats [4]) | tubular flow rates (Micropuncture studies) | basal GFR (Male Sprague-Dawley rats [3]; after 1 day of furosemide 100 mg/kg orally) | GFR (Male Sprague-Dawley rats [1]; [7]) | RBF (Male Sprague-Dawley rats [1]; [7]) | Urine volume [5] | A1 vs. A2 selectivity (adenosine A1 receptor [6]) [fold]
1 | NS(=O)(=O)c1cc2c(cc1Cl)NCNS2(=O)=O [HCTZ, hydrochlorothiazide] | 30 | 20 | significantly increased | only minor effects |  |  |  |  |  |  |  |  |  |  |  |  |  | 
2 | CCCn1c(=O)c2nc(C3CC4CC3C3OC43)[nH]c2n(CCC)c1=O [BG9719, 1,3-dipropyl-8-[5,6-exo-epoxy)-2(S) norbornyl] xanthine] | 1 | 3 | not | does-dependent increase in urine flow | 1.15 | recover to a level not different than normal rats | reaches maximum within the first fifteen minutes | increases in all groups | 13 | increased | 23.8 | maintained across multiple dosing days | increased flow rates in both the proximal and distal tubules |  |  |  |  | 
3 | NS(=O)(=O)c1cc(C(=O)O)c(NCc2ccco2)cc1Cl [furosemide] | 10 | 100 |  | twice as a potent diuretic as BG9719 |  |  |  |  |  |  |  | diminishes on repeated dosing |  | relatively normal; also recorded: fairly normal | significantly lowered | significantly lowered | increased and 1081 mL | 
4 | CCCn1c(=O)c2[nH]c(C34CC5CC(CC3C5)C4)nc2n(CCC)c1=O [KW 3902] |  |  |  |  |  |  |  |  |  |  |  |  |  |  |  |  |  | 150
